According to US6689777B2 (Kenneth S. Warren Institute, priority 2001, dated 2004):
pIC50: −log10 of the molar value. Counter-ions that a name gives are not always drawn. Like-named read-outs stand apart in the source and are kept apart here.

How the values were obtained:
[1] = test system: synthetic hemozoin; assay: Depolymerization of synthetic hemozoin in vitro; type: biochemical; details: 50 mM test compound, acetate buffer pH 5.0, 37° C., 16 hours
Description: This activity is evaluated by incubating a suspension of monomer-free hemozoin at 37° C. with compounds of the present invention for 16 hours. After incubation, hemozoin is separated from any solubilized heme and soluble heme oligomers, the oligomers depolymerized, and the heme present in the supernatants determined.
The synthesis of synthetic hemozoin is carried out as previously described (26). In brief, 60 μmoles of hematin was dissolved in 8 ml of 0.1N NaOH. Following dissolution 49 mmoles of glacial acetic acid was added and the suspension heated at 70° C. overnight. The precipitate was then washed extensively with LPS-free water. In order to remove unreacted heme the precipitate was extracted with 0.1M sodium bicarbonate (pH 9.1) for three hours. The remaining insoluble material was recovered by centrifugation, resuspended in EtOH and transferred to sterile Eppendorf tubes. The material was washed several times in EtOH and finally resuspended in LPS-free double-distilled H2O. The hemozoin preparation was then tested for endotoxin by using the Limulus Amebocyte Lysate test following manufacturer's instructions. Although the preparation of LPS-free hemozoin from native or synthetic sources is not critical for in vitro depolymerization studies, it is critical for studies involving monocytes and animals (see Examples below). Small amounts of LPS can evoke a considerable cytokine response and interfere with interpretation of results. The amount of heme in the final product was determined from a small aliquot using the pyridine-hemochrome method as previously described (26). The preparations are stored at 4° C. until used.
A suspension of monomer-free hemozoin (equivalent to 2 mM free heme) as prepared above was incubated at 37° C. with […] test compound in total volume of 500 μl in acetate buffer (pH: 5.0) in siliconized Eppendorf tubes (Brinkmann Instruments, Westbury, N.Y.) for 16 hours. A control sample containing distilled H2O instead of hemozoin was included. The samples were centrifuged at 14,000 rpm (Eppendorf centrifuge model 5415C, Brinkmann Instruments, Westbury, N.Y.) for 20 min; then 225 μl supernatant was diluted in 175 μl acetate buffer (pH 5.0). Another 225 μl was added to 175 μl 0.5 M NaOH to dissolve possible oligomeric depolymerization products to monomers. Half of the pellet was washed twice for 2.5 hr in 200 μl 2.5% SDS (v/v) in dH2O, the other half was washed twice in 200 μl HCO3^− buffer (pH: 9.1). Both sample supernatants and SDS and HCO3^− buffer supernatants were centrifuged 14,000 rpm for 20 min. and supernatants were added to 10 μl sodium dithionite (200 mg/ml dH2O) to reduce the heme monomers in solution to Fe^2+. All samples were measured in triplicate at 540 nm (Model UV1601 spectrophotometer, Shimradzu Corp, Columbia, Md.). The OD obtained from the blind sample was subtracted from the OD of the hemozoin containing sample.

[2] = test system: P. falciparum; assay: P. falciparum growth in culture ([3H]-hypoxanthine incorporation); type: cell-based; details: Plasmodium falciparum, read-out: IC50 vs. P. falc.
[3] = test system: P. falciparum; assay: as above; type: cell-based; details: growth in culture, [3H]-hypoxanthine incorporation, read-out: IC50 vs. P. falc.
Description: To determine the effectiveness of the compounds of the present invention against the erythrocytic stage of the malarial parasite, P. falciparum was grown in human erythrocyte suspensions and maintained at 37° C. in candle jars according to the method of Trager and Jensen (15,16). Parasites were stage-synchronized by incubating mainly ring-stage infected erythrocytes in 5% sorbitol for 10 minutes at room temperature (17). Cultures undergo one growth cycle (2 days) before use. Strains used include the chloroquine sensitive strains D10 and HB3, and the chloroquine resistant isolates Dd2 and FCR.
Parasite growth was determined by measuring incorporation of [^3H]-hypoxanthine into the nucleic acids of the parasite (18). Effects of the compounds of the present invention on parasite growth was determined by measuring the reduction in incorporation of radiolabel as compared to controls. Briefly, assays are performed in 96-well microtiter plates. After 24 h of candle jar incubation at 37° C., [^3H]-hypoxanthine is added to each well. After 18 h the plates are harvested onto glass fiber filter 96 well plates using a cell harvester, dried, and the amount of radioactivity is determined. Drug IC50 values (molar concentration which decreases [^3H]-hypoxanthine incorporation by 50% as compared to drug-free controls) are calculated by extrapolation of the log dose-response curves using curve fitting software (Origin, Microcal Software, Northampton, Mass.).
Parasites were grown in A^+ human erythrocyte suspensions using RPMI-1640 (GIBCO, Gaithersburg, Md.) medium supplemented by 25 mM HEPES (pH 7.35), 0.2% NaHCO3 (23 mM), 0.2% (D)-Glucose and 10% human A^+ plasma and maintained at 37° C. in candle jars according to the method of Trager and Jensen (20,21) Parasites are stage synchronized by incubating mainly ring-stage infected erythrocytes in 5% sorbitol for 10 minutes at room temperature (22). Cultures undergo one growth cycle (2 days) before use. Strains used include the chloroquine sensitive strains D10 and HB3, and the chloroquine resistant isolates Dd2 and FCR.
Parasite growth was determined by measuring incorporation of [^3H]-hypoxanthine into the nucleic acids of the parasite as previously described (23). Effects of the compounds of the present invention on parasite growth was determined by measuring the reduction in incorporation of radiolabel as compared to controls. Briefly, assays were performed in 96-well microtiter plates, each well containing 200 μl of synchronized ring-stage infected erythrocytes in complete media and 50 μl of drug dilution or solvent. The final hematocrit was 1.5% and percent parasitemias range from 2-8%. After 24 h of candle jar incubation at 37° C., 2.5 μCi of [^3H]-hypoxanthine (17 Ci/mmol, Amersham, Arlington Heights, Ill.) in RPMI-1640 media supplemented with 25 mM HEPES (pH 7.35), 0.2% NaHCO3 (23 mM), 0.2% (D)-Glucose is added to each well. After 18 h the plates were harvested onto glass fiber filter 96 well plates using a cell harvester, dried, and 25 μl scintillation acid added per well. The, amount of radioactivity was determined. Drug IC50 values (molar concentration which decreases [^3H]-hypoxanthine incorporation by 50% as compared to drug-free controls) are calculated by extrapolation of the log dose-response curves using curve fitting software (Origin, Microcal Software, Northampton, Mass.). The effects on parasite grown by aromatic guanyllhydrazones, bisguanylhydrazones, naphthothiazolium salts, and other compounds of the instant invention, together with data on hemozoin depolymerization from Example 5, are shown in tables 1 through 4, respectively.

[4] = Table 3, naphthothiazolium salts, in culture
[5] = Table 1, aryl monoguanylhydrazones, growth in culture
[6] = Table 1, aryl monoguanylhydrazones

Structure (SMILES) | pIC50 [2, 4] | pIC50 [2, 5] | % depol. hemoz. ([1]; Table 3) [%] | % depol. hemoz. ([1]; Table 1) [%] | also measured
Cc1c(O)c2ccccc2c2c1sc(Nc1ccccc1)[n+]2C.[Cl-] [1,2-dihydro-1,4-dimethyl-2-(phenylimino)naphtho[1,2-d]thiazol-5-ol monohydrochloride] | < 5.00 |  | 0.0 |  | 
Cc1c(O)c2ccccc2c2c1sc(NCCO)[n+]2C.[Cl-] [1,2-dihydro-2-[(2-hydroxyethyl)imino]-1,4-dimethylnaphtho[1,2-d]thiazol-5-ol monohydrochloride] | 5.85 |  | 3.1 |  | 
C=CCNc1sc2c(C)c(O)c3ccccc3c2[n+]1CC=C.[Cl-] [1,2-dihydro-4-methyl-1-(2-propenyl)-2-(2-propenylimino)naphtho[1,2-d]thiazol-5-ol monohydrochloride] | 5.22 |  | 4.8 |  | 
Cc1c(O)c2ccccc2c2nc(Nc3ccccc3)sc12.Cl [1,2-dihydro-4-methyl-2-(phenylimino)naphtho[1,2-d]thiazol-5-ol monohydrochloride] | 5.38 |  | 0.0 |  | 
CCNc1sc2c(C)c(O)c3ccccc3c2[n+]1CC.[Cl-] [1-ethyl-2-(ethylimino)-1,2-dihydro-4-methylnaphtho[1,2-d]thiazol-5-ol monohydrochloride] | 5.60 |  | 2.4 |  | 
Cl.Cl.N=C(N)NN=C1CCC(=NNC(=N)N)CC1 [2,2′-(1,4-cyclohexanediylidene)bis(hydrazinecarboximidamide) dihydrochloride] |  |  |  |  | % depol. hemoz. ([1]; Table 4): 0%; pIC50 ([2]; Table 4, in culture): 5.70
CC(=NNC(=N)N)c1cccc(C(C)=NNC(=N)N)c1N [2,2′-[(2-amino-1,3-phenylene)diethylidyne]bis(hydrazinecarboximidamide) dihydrochloride] |  |  |  |  | pIC50 ([3]; Table 2, aromatic bisguanylhydrazones): 5.20
C/C(=N\NC(=O)CN(C)C)c1cccc(/C(C)=N/NC(=O)CN(C)C)n1.Cl.Cl [2,6-bis[1-[[(dimethylamino)acetyl]hydrazono]ethyl]pyridine dihydrochloride] |  |  |  |  | % depol. hemoz. ([1]; Table 4): 0%; pIC50 ([2]; Table 4, in culture): 5.82
Cc1c(O)c2ccccc2c2c1sc(NC1CCCCC1)[n+]2CCO.[Cl-] [2-(cyclohexylimino)-5-hydroxy-4-methylnaphtho[1,2-d]thiazole-1(2H)-ethanol monohydrochloride] | 6.00 |  | 0.4 |  | 
CC(=NNC(=N)N)c1ccc(OCc2ccccc2)c(C)c1O.Cl [2-[1-(4-benzyloxy-2-hydroxy-3-methylphenyl)ethylidene]hydrazinecarboximidamide hydrochloride] |  | 5.88 |  | 1.9 | 
CC(CCC1=C(C)C(=O)c2ccccc2C1=O)=NNC(=N)N.Cl [2-[3-(1,4-dihydro-1,4-dioxo-3-methyl-2-naphthalenyl)-1-methylpropylidene]hydrazinecarboximidamide hydrochloride] |  |  |  |  | % depol. hemoz. ([1]; Table 4): 0.1%; pIC50 ([2]; Table 4, in culture): 5.89
CC1=CC(=O)c2cc(CC=NNC(=N)N)ccc2C1=O.Cl [2-[(1,4-dihydro-1,4-dioxo-3-methyl-7-naphthalenyl)ethylidene]hydrazinecarboximidamide hydrochloride] |  | 5.74 |  | 0.4 | 
CC(=NNC(=N)N)c1cccc(-c2cc(C)n(C)c(=N)n2)c1 [2-[[3-(3,4-dimethyl-2(3H)-imino-6-pyrimidinyl)phenyl]ethylidene]hydrazinecarboximidamide hydrochloride hydroiodide] |  |  |  |  | pIC50 [3, 6]: 5.98
CC(=NNC(=N)N)c1ccc(-c2cc(C)n(C)c(=N)n2)cc1 [2-[[4-(3,4-dimethyl-2(3H)-imino-6-pyrimidinyl)phenyl]ethylidene]hydrazinecarboximidamide hydrochloride hydroiodide] |  |  |  |  | pIC50 [3, 6]: 6.22

More lines, main results first:

pIC50 [2, 4] | pIC50 [2, 5] | Structure (SMILES) | % depol. hemoz. ([1]; Table 3) [%] | % depol. hemoz. ([1]; Table 1) [%] | also measured
 | 5.22 | N=C(N)NN=CCc1ccc2ccccc2c1O [2-[(1-hydroxy-2-naphthyl)ethylidene]hydrazinecarboximidamide hydrochloride] |  |  | 
 | < 5.00 | Cl.N=C(N)NN=Cc1cccc(O)c1O [2-[(2,3-dihydroxyphenyl)methylene]hydrazinecarboximidamide hydrochloride] |  | 4.1 | 
 | 6.00 | COc1ccc(C=NNC(=N)N)c(O)c1 [2-[(2-hydroxy-4-methoxyphenyl)methylene]hydrazinecarboximidamide hydrochloride] |  |  | 
 | 5.36 | COc1ccc(O)c(C=NNC(=N)N)c1.Cl [2-[(2-hydroxy-5-methoxyphenyl)methylene]hydrazinecarboximidamide hydrochloride] |  | 0.9 | 
 | < 5.00 | Cl.N=C(N)NN=CCc1ccccc1O [2-[(2-hydroxyphenyl)ethylidene]hydrazinecarboximidamide hydrochloride] |  | 0.4 | 
 | 5.46 | Cl.N=C(N)NN=Cc1ccccc1O [2-[(2-hydroxyphenyl)methylene]hydrazinecarboximidamide hydrochloride] |  | 3.5 | 
 | < 5.00 | Cl.N=C(N)NN=CCc1ccc(O)c(O)c1 [2-[(3,4-dihydroxyphenyl)ethylidene]hydrazinecarboximidamide hydrochloride] |  | 0.5 | 
 | 5.47 | N=C(N)NN=Cc1ccnc2ccccc12 [2-[(4-quinolinyl)methylene]hydrazinecarboximidamide hydrochloride] |  |  | 
5.20 |  | C=CCNc1nc2c(s1)c(C)c(O)c1ccccc12.Cl [4-methyl-2-(2-propenylamino)naphtho[1,2-d]thiazol-5-ol monohydrochloride] | 0.4 |  | 
